Reference: publication PMC12332667, “Role of Structural Modifications in Peptidomimetic Compounds as Potential Antimicrobial Agents against Staphylococcus aureus and Streptococcus pyogenes: Balancing Bioavailability, Safety, and Antimicrobial Activity” (ACS Omega, 2025)
In brackets after ≈: the same amount, converted by molar mass.

Legend:
S. schleiferi c.i. = assay: MIC/MBC broth microdilution, S. schleiferi; format: cell-based, Staphylococcus schleiferi
How it was run: (§1)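 Standard NCCLS broth microdilution in BHI broth, inoculum approx. 10^5 CFU/mL, serially diluted peptidomimetics, 18 h at 37 °C. MIC was the lowest concentration with no obvious growth (≥90% inhibition versus untreated); MBC was the lowest giving ≤3 colonies on subculture (≥99.9% kill).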

P. aeruginosa ATCC 10145 = assay: MIC/MBC broth microdilution, P. aeruginosa; format: cell-based
How it was run: as §1

S. pyogenes ATCC 19615 = assay: MIC/MBC broth microdilution, S. pyogenes; format: cell-based, Streptococcus pyogenes; conditions: S. pyogenes
How it was run: as §1

[1] = system: immortalized human HaCaT keratinocytes; assay: XTT cell proliferation assay, keratinocytes; format: cell-based
How it was run: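 Cells at 37 °C, 5% CO2 received peptidomimetics in serum-free HG-DMEM for 48 or 72 h; for 72 h, half the medium was renewed and peptide re-added at 48 h. XTT reagent was then incubated 4 h and absorbance read at 490 nm; Mann–Whitney U test, p ≤ 0.05.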

P. vulgaris ATCC 6896 = assay: MIC/MBC broth microdilution, P. vulgaris; format: cell-based, Proteus vulgaris
How it was run: as §1

S. cohnii c.i. = assay: MIC/MBC broth microdilution, S. cohnii; format: cell-based, Staphylococcus cohnii
How it was run: as §1

[2] = system: immortalized human keratinocytes (HaCaT); assay: LDH cytotoxicity test, keratinocytes; format: cell-based; conditions: 48 h; for cytotoxicity (LDH), in words: 50-150 μg/mL
How it was run: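 HaCaT keratinocytes and 46BR.1N fibroblasts, 5000 cells per well, grown 24 h, then exposed to peptidomimetics at 50, 100 and 150 μg/mL in serum-free medium for 48 h. LDH release in supernatant read at 450 nm, normalized to untreated (0%) and 1% Triton X-100 (maximal) controls.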

E. coli ATCC 25922 = assay: MIC/MBC broth microdilution, E. coli; format: cell-based, Escherichia coli
How it was run: as §1

S. agalactiae ATCC 27956 = assay: MIC/MBC broth microdilution, S. agalactiae; format: cell-based, Streptococcus agalactiae; conditions: S. agalactiae
How it was run: as §1

S. aureus ATCC 43300 = assay: MIC/MBC broth microdilution, S. aureus; format: cell-based, Staphylococcus aureus; conditions: S. aureus

For `CC(C)[C@@H](CNC(=O)C(=Cc1ccccc1)c1ccccc1)NC(=O)[C@H](CCCNC(=N)N)NC(=O)[C@H](CCCCNC(=N)N)NC(=O)OCc1ccccc1` [Compound A-192], the MBC (S. schleiferi c.i.; H2O) was 256 µg/mL (≈ 333 µM), the MIC (S. schleiferi c.i.; H2O) was 256 µg/mL (≈ 333 µM) and the MBC (S. schleiferi c.i.; water additive DMSO) was 256 µg/mL (≈ 333 µM). For the same compound, the MIC (S. schleiferi c.i.; water additive DMSO) was 256 µg/mL (≈ 333 µM), the MBC (S. schleiferi c.i.; water additive EtOH) was 256 µg/mL (≈ 333 µM) and the MIC (S. schleiferi c.i.; water additive EtOH) was 256 µg/mL (≈ 333 µM). For the same compound, the MBC (P. aeruginosa ATCC 10145; H2O) was 256 µg/mL (≈ 333 µM), the MIC (P. aeruginosa ATCC 10145; water additive EtOH) was over 512 µg/mL and the MBC (S. pyogenes ATCC 19615; H2O) was 8 µg/mL (≈ 10.4 µM). It also gave an MIC (S. pyogenes ATCC 19615; H2O) of 8 µg/mL (≈ 10.4 µM), an MBC (S. pyogenes ATCC 19615; water additive DMSO) of 8 µg/mL (≈ 10.4 µM) and an MIC (S. pyogenes ATCC 19615; water additive DMSO) of 8 µg/mL (≈ 10.4 µM). The MBC (S. pyogenes ATCC 19615; water additive EtOH) was 8 µg/mL (≈ 10.4 µM), the MIC (S. pyogenes ATCC 19615; water additive EtOH) was 4 µg/mL (≈ 5.2 µM) and the “proliferation relative to control at 100 and 150 μg/mL” value ([1]; XTT) was 25%. The “proliferation relative to control at 50 μg/mL” value ([1]; XTT, 50 μg/mL) was 50%, the “effect on proliferation, in words” value ([1]; XTT, 48 and 72 h, 0.01–150 μg/mL) was “negative impact” and the MIC (P. vulgaris ATCC 6896; H2O) was over 512 µg/mL. For the same compound, the MIC (P. vulgaris ATCC 6896; water additive DMSO) was over 512 µg/mL, the MIC (P. vulgaris ATCC 6896; water additive EtOH) was over 512 µg/mL and the MBC (S. cohnii c.i.; H2O) was 32 µg/mL (≈ 41.6 µM). The MIC (S. cohnii c.i.; H2O) was 16 µg/mL (≈ 20.8 µM), the MBC (S. cohnii c.i.; water additive DMSO) was 32 µg/mL (≈ 41.6 µM) and the MIC (S. cohnii c.i.; water additive DMSO) was 32 µg/mL (≈ 41.6 µM). For the same compound, the MBC (S. cohnii c.i.; water additive EtOH) was 32 µg/mL (≈ 41.6 µM), the MIC (S. cohnii c.i.; water additive EtOH) was 16 µg/mL (≈ 20.8 µM) and the “cytotoxicity (LDH), in words” value [2] was “high cytotoxicity toward keratinocytes”. It also gave an MIC (E. coli ATCC 25922; H2O) of over 512 µg/mL, an MBC (E. coli ATCC 25922; water additive DMSO) of 512 µg/mL (≈ 666 µM) and an MIC (E. coli ATCC 25922; water additive DMSO) of 256 µg/mL (≈ 333 µM). The MIC (E. coli ATCC 25922; water additive EtOH) was over 512 µg/mL, the MIC (S. agalactiae ATCC 27956; H2O) was 32 µg/mL (≈ 41.6 µM) and the MIC (S. agalactiae ATCC 27956; water additive EtOH) was 32 µg/mL (≈ 41.6 µM). It also gave an MBC (S. aureus ATCC 43300; H2O) of 4 µg/mL (≈ 5.2 µM), an MIC (S. aureus ATCC 43300; H2O) of 4 µg/mL (≈ 5.2 µM) and an MBC (S. aureus ATCC 43300; water additive DMSO) of 16 µg/mL (≈ 20.8 µM). The MIC (S. aureus ATCC 43300; water additive DMSO) was 16 µg/mL (≈ 20.8 µM), the MBC (S. aureus ATCC 43300; water additive EtOH) was 16 µg/mL (≈ 20.8 µM) and the MIC (S. aureus ATCC 43300; water additive EtOH) was 16 µg/mL (≈ 20.8 µM).

`CC(C)[C@@H](CNC(=O)C(=Cc1ccccc1)c1ccccc1)NC(=O)[C@H](Cc1c[nH]cn1)NC(=O)[C@H](CCCCNC(=N)N)NC(=O)OCc1ccccc1` [Compound A-193] showed an MBC (S. schleiferi c.i.; H2O) of 32 µg/mL (≈ 42.7 µM), an MIC (S. schleiferi c.i.; H2O) of 8 µg/mL (≈ 10.7 µM) and an MBC (S. schleiferi c.i.; water additive DMSO) of 8 µg/mL (≈ 10.7 µM). It also gave an MIC (S. schleiferi c.i.; water additive DMSO) of 4 µg/mL (≈ 5.33 µM), an MBC (S. schleiferi c.i.; water additive EtOH) of 32 µg/mL (≈ 42.7 µM) and an MIC (S. schleiferi c.i.; water additive EtOH) of 8 µg/mL (≈ 10.7 µM). The MIC (P. aeruginosa ATCC 10145; H2O) was over 512 µg/mL, the MIC (P. aeruginosa ATCC 10145; water additive DMSO) was 512 µg/mL (≈ 683 µM) and the MIC (P. aeruginosa ATCC 10145; water additive EtOH) was over 512 µg/mL. For the same compound, the MBC (S. pyogenes ATCC 19615; H2O) was 16 µg/mL (≈ 21.3 µM), the MIC (S. pyogenes ATCC 19615; H2O) was 8 µg/mL (≈ 10.7 µM) and the MBC (S. pyogenes ATCC 19615; water additive DMSO) was 16 µg/mL (≈ 21.3 µM). It also gave an MIC (S. pyogenes ATCC 19615; water additive DMSO) of 8 µg/mL (≈ 10.7 µM), an MBC (S. pyogenes ATCC 19615; water additive EtOH) of 16 µg/mL (≈ 21.3 µM) and an MIC (S. pyogenes ATCC 19615; water additive EtOH) of 8 µg/mL (≈ 10.7 µM). For the same compound, the “antiproliferative effect (decrease vs control)” value ([1]; up to 150 μg/mL, A-193 and A-179 after 48 h) was “over 50%”, the MIC (P. vulgaris ATCC 6896; H2O) was over 512 µg/mL and the MIC (P. vulgaris ATCC 6896; water additive DMSO) was over 512 µg/mL. The MIC (P. vulgaris ATCC 6896; water additive EtOH) was over 512 µg/mL, the MBC (S. cohnii c.i.; water additive DMSO) was 256 µg/mL (≈ 341 µM) and the “cytotoxicity (LDH), in words” value [2] was “cytotoxic only at a concentration of 150 μg/mL”. For the same compound, the “concentration at which cytotoxic effect starts” value ([2]; LDH) was 150 µg/mL, the MBC (E. coli ATCC 25922; H2O) was 256 µg/mL (≈ 341 µM) and the MIC (E. coli ATCC 25922; H2O) was 256 µg/mL (≈ 341 µM). For the same compound, the MIC (E. coli ATCC 25922; water additive DMSO) was over 512 µg/mL, the MBC (E. coli ATCC 25922; water additive EtOH) was 512 µg/mL (≈ 683 µM) and the MIC (E. coli ATCC 25922; water additive EtOH) was 256 µg/mL (≈ 341 µM). The MIC (S. agalactiae ATCC 27956; water additive EtOH) was 32 µg/mL (≈ 42.7 µM), the MBC (S. aureus ATCC 43300; H2O) was 32 µg/mL (≈ 42.7 µM) and the MIC (S. aureus ATCC 43300; H2O) was 32 µg/mL (≈ 42.7 µM). It also gave an MBC (S. aureus ATCC 43300; water additive DMSO) of 32 µg/mL (≈ 42.7 µM), an MIC (S. aureus ATCC 43300; water additive DMSO) of 32 µg/mL (≈ 42.7 µM) and an MBC (S. aureus ATCC 43300; water additive EtOH) of 32 µg/mL (≈ 42.7 µM). The MIC (S. aureus ATCC 43300; water additive EtOH) was 32 µg/mL (≈ 42.7 µM).
